Columns and labels:
[1] = biological target: T1, Muscarinic acetylcholine receptor M1 (Rattus norvegicus) (UniProt P08482); experiment: Percent reduction in specific binding of 0.5 nM [3H]N-methylscopolamine (NMS) to rat forebrain membranes following a 30 min pre-incubation at concentration of 0.5 uM; format: cell membranes; settings: Membrane
T1 sequence (whole entry): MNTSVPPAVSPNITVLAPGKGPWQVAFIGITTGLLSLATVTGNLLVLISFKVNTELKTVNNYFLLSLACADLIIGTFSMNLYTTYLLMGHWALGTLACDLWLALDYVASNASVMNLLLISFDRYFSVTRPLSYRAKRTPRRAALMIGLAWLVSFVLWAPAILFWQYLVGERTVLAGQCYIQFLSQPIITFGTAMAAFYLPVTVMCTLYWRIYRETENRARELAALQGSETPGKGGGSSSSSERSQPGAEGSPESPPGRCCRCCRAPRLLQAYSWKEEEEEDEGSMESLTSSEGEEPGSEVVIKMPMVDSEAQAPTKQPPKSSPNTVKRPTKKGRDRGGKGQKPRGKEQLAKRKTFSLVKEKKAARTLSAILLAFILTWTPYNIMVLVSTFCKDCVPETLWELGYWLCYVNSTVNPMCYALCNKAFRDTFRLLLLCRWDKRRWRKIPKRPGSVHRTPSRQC

[2] = biological target: T2, Muscarinic acetylcholine receptor M1 (Rattus norvegicus, UniProt P08482); experiment: Inhibitory concentration was evaluated for irreversible inhibition at rat forebrain muscarinic receptor
T2 sequence (P08482 whole entry): T1 sequence (whole entry)

[3] = biological target: T3, Muscarinic acetylcholine receptor M2 (Rattus norvegicus, UniProt P10980); experiment: Inhibitory constant by the inhibition of [3H]N-methylscopolamine (NMS) binding to Muscarinic acetylcholine receptor M2 of rat heart
T3 sequence (P10980 whole entry): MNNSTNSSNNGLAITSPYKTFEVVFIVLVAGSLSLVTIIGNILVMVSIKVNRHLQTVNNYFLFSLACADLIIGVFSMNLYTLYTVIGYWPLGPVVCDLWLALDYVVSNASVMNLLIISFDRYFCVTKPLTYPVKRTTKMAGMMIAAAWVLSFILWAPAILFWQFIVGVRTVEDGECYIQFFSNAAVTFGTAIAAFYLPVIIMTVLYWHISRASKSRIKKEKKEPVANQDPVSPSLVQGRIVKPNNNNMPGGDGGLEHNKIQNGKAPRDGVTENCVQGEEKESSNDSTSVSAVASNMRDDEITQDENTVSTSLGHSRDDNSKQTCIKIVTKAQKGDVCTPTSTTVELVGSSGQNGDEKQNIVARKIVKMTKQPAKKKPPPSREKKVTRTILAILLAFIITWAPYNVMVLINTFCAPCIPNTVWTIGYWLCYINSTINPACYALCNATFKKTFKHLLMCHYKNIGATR

| Reduction [1] | Ki [3] | SMILES | IC50 [2] |
| --- | --- | --- | --- |
| 51.1% | – | O=C1Nc2cccnc2N(C(=O)CN2CCN(CCCCCCCCNC(=S)Nc3cccc(N=C=S)c3)CC2)c2ccccc21 | – |
| – | 3.7 nM | Cc1scc2c1N(C(=O)CN1CCN(CCCCCCCCCCN)CC1)c1ccccc1NC2=O | – |
| 48.7% | – | O=C1Nc2cccnc2N(C(=O)CN2CCN(CCCCCCCCCNC(=S)Nc3cccc(N=C=S)c3)CC2)c2ccccc21 | – |

| SMILES | Reduction [1] | Ki [3] | IC50 [2] |
| --- | --- | --- | --- |
| O=C1Nc2cccnc2N(C(=O)CN2CCN(CCCCCCCCCCNC(=S)Nc3cccc(N=C=S)c3)CC2)c2ccccc21 | 76% | – | 0.15 nM |
